Reference: patent US10874743B2, “IRAK degraders and uses thereof” (Kymera Therapeutics, Inc., priority 2017, dated 2020)

Experiments:
IRAK4 [1] = target: T1, IRAK4 (Homo sapiens, UniProt Q9NWZ3); assay: OCI-LY-10 MSD assay for IRAK4 DC50; format: cell-based; set-up: endogenous in cells; host or cells: OCI-LY10; settings: OCI-LY10 cells, 4 hr incubation, concentration required to degrade 50% of protein
T1 sequence (Q9NWZ3 1-460): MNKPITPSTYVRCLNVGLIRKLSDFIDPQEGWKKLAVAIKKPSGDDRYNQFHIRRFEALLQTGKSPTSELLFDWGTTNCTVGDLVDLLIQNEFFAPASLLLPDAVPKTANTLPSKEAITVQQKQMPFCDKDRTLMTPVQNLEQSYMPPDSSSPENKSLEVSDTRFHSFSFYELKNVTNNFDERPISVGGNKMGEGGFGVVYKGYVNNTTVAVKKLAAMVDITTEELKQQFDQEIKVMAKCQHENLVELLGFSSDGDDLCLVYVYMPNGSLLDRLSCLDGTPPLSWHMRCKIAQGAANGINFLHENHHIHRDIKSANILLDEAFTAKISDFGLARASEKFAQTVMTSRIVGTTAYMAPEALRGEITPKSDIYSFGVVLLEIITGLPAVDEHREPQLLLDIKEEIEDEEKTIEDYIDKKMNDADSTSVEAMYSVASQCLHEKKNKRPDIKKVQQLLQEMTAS
In short: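 IRAK4 level was quantified by MSD electrochemiluminescence (anti-IRAK4 capture antibody, rabbit anti-IRAK4 detection antibody) in RIPA lysates of OCI-Ly10 cells. Cells had been treated with compound for 4 hr (8-point, 3-fold serial dilution). Remaining protein versus concentration was fitted to a sigmoidal curve to give DC50.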

IRAK4 [2] = target: T1, IRAK4; assay: OCI-LY-10 degradation assay (western blot, % IRAK4 degraded after 4 hours); format: cell-based; set-up: endogenous in cells; host or cells: OCI-LY10; settings: OCI-LY10 cells, 4 hours; for OCI-LY10 % IRAK4 Degradation (0.01 uM): 0.01 uM compound; for OCI-LY10 % IRAK4 Degradation (0.1 uM): 0.1 uM compound; for OCI-LY10 % IRAK4 Degradation (1 uM): 1 uM compound
In short: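 IRAK4 loss after 4 h at 37° C was scored A (>50%), B (>20-50%) or C (<20%) from infrared western blots of RIPA lysates, 20-25 μg protein per lane. Compound was applied at 0.003-10 μM final to OCI-LY10 cells cultured in RPMI-1640 with 20% FBS and 55 μM 2-ME.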

SMILES | DC50 (IRAK4 [1]) [nM] | OCI-LY10 % IRAK4 Degradation (0.01 uM) (IRAK4 [2]) | OCI-LY10 % IRAK4 Degradation (0.1 uM) (IRAK4 [2]) | OCI-LY10 % IRAK4 Degradation (1 uM) (IRAK4 [2])
O=C1CCC(N2C(=O)c3ccc(N4CCN(CCOCCOCCOCCNCc5ccc(-n6cc(NC(=O)c7coc(-c8ccnc(NCC9CC9)c8)n7)c(C(F)F)n6)cc5)CC4)cc3C2=O)C(=O)N1 (stereo not shown) [I-394] | 100 to 500 | C (<20% degradation) | A (>50% degradation) | A (>50% degradation)
Cn1cc(-c2nc(C(=O)Nc3cn(-c4ccc(CNCCOCCOCCNc5cccc6c5C(=O)N(C5CCC(=O)NC5=O)C6=O)cc4)nc3C(F)F)co2)cn1 (stereo not shown) [I-352] | > 1000 | C (<20% degradation) | C (<20% degradation) | C (<20% degradation)
O=C1CCC(N2C(=O)c3ccc(NCCOCCN4CC5(CN(CCOCCNCc6ccc(-n7cc(NC(=O)c8coc(-c9ccnc(NCC%10CC%10)c9)n8)c(C(F)F)n7)cc6)C5)C4)cc3C2=O)C(=O)N1 (stereo not shown) [I-351] | 100 to 500 | C (<20% degradation) | C (<20% degradation) | A (>50% degradation)
Cn1cc(NC(=O)c2coc(-c3ccnc(NCC(F)(F)F)c3)n2)c(C(=O)NCCCOCC(C)(C)COCCCc2cccc3c2n(C)c(=O)n3C2CCC(=O)NC2=O)n1 (stereo not shown) [I-297] | > 1000 | C (<20% degradation) | C (<20% degradation) | C (<20% degradation)
O=C1CCC(N2C(=O)c3ccc(CCOCCN4CCC(n5cc(NC(=O)c6coc(-c7ccnc(NCC8CC8)c7)n6)c(C(F)F)n5)CC4)cc3C2=O)C(=O)N1 (stereo not shown) [I-262] | > 1000 | C (<20% degradation) | B (>20-50% degradation) | B (>20-50% degradation)
NC(=O)c1nn(CCOCCOCCOCCOCCNc2cccc3c2C(=O)N(C2CCC(=O)NC2=O)C3=O)cc1NC(=O)c1coc(-c2ccnc(NCC3CC3)c2)n1 (stereo not shown) [I-240] | > 1000 | B (>20-50% degradation) | B (>20-50% degradation) | B (>20-50% degradation)
O=C1CCC(N2C(=O)c3cccc(NC4CCN(CCOCCOCCOCCNCc5ccc(-n6cc(NC(=O)c7coc(-c8ccnc(NCC9CC9)c8)n7)c(C(F)F)n6)cc5)CC4)c3C2=O)C(=O)N1 (stereo not shown) [I-386] | 100 to 500 | C (<20% degradation) | B (>20-50% degradation) | A (>50% degradation)
O=C1CCC(N2C(=O)c3ccc(NC4CCN(CCOCCOCCNC(=O)c5ccc(-n6cc(NC(=O)c7coc(-c8ccnc(NCC9CC9)c8)n7)c(C(F)F)n6)cc5)CC4)cc3C2=O)C(=O)N1 (stereo not shown) [I-270] | 100 to 500 | C (<20% degradation) | B (>20-50% degradation) | A (>50% degradation)
O=C1CCC(N2C(=O)c3cccc(NCCOCCOCCOCC(=O)N4C[C@H](O)C[C@H]4C(=O)NCc4ccc(-n5cc(NC(=O)c6coc(-c7ccnc(NCC8CC8)c7)n6)c(C(F)F)n5)cc4)c3C2=O)C(=O)N1 (stereo partly shown) [I-287] | > 1000 | C (<20% degradation) | C (<20% degradation) | B (>20-50% degradation)
CN(CCCc1cccc2c1C(=O)N(C1CCC(=O)NC1=O)C2=O)Cc1ccc(-n2cc(NC(=O)c3coc(-c4ccnc(NCC(F)(F)F)c4)n3)c(C(F)F)n2)cc1 (stereo not shown) [I-360] | > 1000 | B (>20-50% degradation) | C (<20% degradation) | C (<20% degradation)

The next lines start with the values.

DC50 (IRAK4 [1]) [nM] | OCI-LY10 % IRAK4 Degradation (0.01 uM) (IRAK4 [2]) | OCI-LY10 % IRAK4 Degradation (0.1 uM) (IRAK4 [2]) | OCI-LY10 % IRAK4 Degradation (1 uM) (IRAK4 [2]) | SMILES
< 50 | B (>20-50% degradation) | A (>50% degradation) | A (>50% degradation) | NC(=O)c1nn(-c2ccc(COCC3CN(CCOCCNc4cccc5c4C(=O)N(C4CCC(=O)NC4=O)C5=O)CCO3)cc2)cc1NC(=O)c1coc(-c2ccnc(NCC(F)(F)F)c2)n1 (stereo not shown) [I-302, N-[3-carbamoyl-1-[4-[[4-[2-[2-[[2-(2,6-dioxo-3-piperidyl)-1,3-dioxo-isoindolin-4-yl]amino]ethoxy]ethyl]morpholin-2-yl]methoxymethyl]phenyl]pyrazol-4-yl]-2-[2-(2,2,2-trifluoroethylamino)-4-pyridyl]oxazole-4-carboxamide]
< 50 | A (>50% degradation) | A (>50% degradation) | A (>50% degradation) | NC(=O)c1nn(-c2ccc(C(=O)NCCOCCOCCn3c(=O)n(C4CCC(=O)NC4=O)c4ccccc43)cc2)cc1NC(=O)c1coc(-c2ccnc(NCC(F)(F)F)c2)n1 (stereo not shown) [I-231]
< 50 | C (<20% degradation) | B (>20-50% degradation) | A (>50% degradation) | O=C1CCC(N2C(=O)c3cccc(NC4CCN(CCOCCOCCOCCNC(=O)c5ccc(-n6cc(NC(=O)c7coc(-c8ccnc(NCC9CC9)c8)n7)c(C(F)F)n6)cc5)CC4)c3C2=O)C(=O)N1 (stereo not shown) [I-269]
< 50 | C (<20% degradation) | A (>50% degradation) | A (>50% degradation) | CN(CCOCCOCCCc1cccc2c1C(=O)N(C1CCC(=O)NC1=O)C2=O)C(=O)c1ccc(-n2cc(NC(=O)c3coc(-c4ccnc(NCC5CC5)c4)n3)c(C(F)F)n2)cc1 (stereo not shown) [I-225]
< 50 | B (>20-50% degradation) | A (>50% degradation) | A (>50% degradation) | O=C1CCC(N2C(=O)c3ccc(CCCOCCNCc4ccc(-n5cc(NC(=O)c6coc(-c7ccnc(NCC8CC8)c7)n6)c(C(F)F)n5)cc4)cc3C2=O)C(=O)N1 (stereo not shown) [I-381]
50 to 100 | B (>20-50% degradation) | A (>50% degradation) | A (>50% degradation) | O=C1CCC(N2Cc3cc(N4CCN(CCOCCOCCNCc5ccc(-n6cc(NC(=O)c7coc(-c8ccnc(NCC9CC9)c8)n7)c(C(F)F)n6)cc5)CC4)ccc3C2=O)C(=O)N1 (stereo not shown) [I-392]
< 50 | A (>50% degradation) | A (>50% degradation) | A (>50% degradation) | Cn1c(=O)n(C2CCC(=O)NC2=O)c2cccc(CCCOCCOCCNCc3ccc(-n4cc(NC(=O)c5coc(-c6ccnc(NCC7CC7)c6)n5)c(C(F)F)n4)cc3)c21 (stereo not shown) [I-332]
50 to 100 | C (<20% degradation) | A (>50% degradation) | A (>50% degradation) | O=C1CCC(N2C(=O)c3ccc(N4CCN(CCOCCNC(=O)c5ccc(-n6cc(NC(=O)c7coc(-c8ccnc(NCC9CC9)c8)n7)c(C(F)F)n6)cc5)CC4)cc3C2=O)C(=O)N1 (stereo not shown) [I-277]
50 to 100 | C (<20% degradation) | A (>50% degradation) | A (>50% degradation) | O=C1CCC(N2C(=O)c3cccc(NCCOCCN4CCO[C@H](CNC(=O)c5ccc(-n6cc(NC(=O)c7coc(-c8ccnc(NCC(F)(F)F)c8)n7)c(C(F)F)n6)cc5)C4)c3C2=O)C(=O)N1 (stereo partly shown) [I-281]
50 to 100 | C (<20% degradation) | B (>20-50% degradation) | A (>50% degradation) | O=C1CCC(N2C(=O)c3ccc(N4CCN(CCOCCOCCNC(=O)c5ccc(-n6cc(NC(=O)c7coc(-c8ccnc(NCC9CC9)c8)n7)c(C(F)F)n6)cc5)CC4)cc3C2=O)C(=O)N1 (stereo not shown) [I-276]
< 50 | A (>50% degradation) | A (>50% degradation) | A (>50% degradation) | O=C1CCC(N2C(=O)c3cccc(NC4CCN(CCOCCOCCNC(=O)c5ccc(-n6cc(NC(=O)c7coc(-c8ccnc(NCC(F)(F)F)c8)n7)c(C(F)F)n6)cc5)CC4)c3C2=O)C(=O)N1 (stereo not shown) [I-283]
50 to 100 | C (<20% degradation) | B (>20-50% degradation) | A (>50% degradation) | O=C1CCC(N2C(=O)c3ccc(N4CCN(CCOCCOCCOCCNC(=O)c5ccc(-n6cc(NC(=O)c7coc(-c8ccnc(NCC9CC9)c8)n7)c(C(F)F)n6)cc5)CC4)cc3C2=O)C(=O)N1 (stereo not shown) [I-278]
